Among the data in ChEMBL document CHEMBL1145728, “Structure--activity relationships of the peptide deformylase inhibitor BB-3497: modification of the P2' and P3' side chains” (Bioorg Med Chem Lett, 2003) are MIC and IC50 values, retold here.

One assay relates to Staphylococcus capitis. The experiment in a line: Antibacterial activity against Staphylococcus capitis. The format is functional.
The subject of another assay is Escherichia coli. The experiment in a line: Antibacterial activity against Escherichia coli. The assay is classed as functional.
The next assay concerns the target T1, Peptide deformylase (Escherichia coli, UniProt Q9JN24).
T1 sequence (Q9JN24 whole entry): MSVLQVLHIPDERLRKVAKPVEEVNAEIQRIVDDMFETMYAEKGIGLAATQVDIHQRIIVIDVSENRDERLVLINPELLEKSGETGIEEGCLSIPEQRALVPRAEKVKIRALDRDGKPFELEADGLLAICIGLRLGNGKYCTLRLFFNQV
The experiment in a line: Inhibition concentration against Escherichia coli peptide deformylase.

Where [1] appears, read: Staphylococcus capitis, read-out: MIC.
Where [2] appears, read: Escherichia coli, read-out: MIC.

Converted amounts (≈) assume the structure as drawn.

`CCCC[C@H](CN(O)C=O)C(=O)N1Cc2ccccc2C[C@H]1C(=O)N(C)C`: the minimum inhibitory concentration (MIC) with Staphylococcus capitis (setting [1]) and with Escherichia coli (setting [2]) was over 200 µM in each case.
In the case of `CCCC[C@H](CN(O)C=O)C(=O)N[C@@H](CO)C(=O)N(C)C`, the minimal inhibitory concentration (MIC) with Staphylococcus capitis (setting [1]) came out at 50 µM (≈ 15.2 µg/mL); in the assay with Escherichia coli (setting [2]) it was 100 µM (≈ 30.3 µg/mL).
`CCCC[C@H](CN(O)C=O)C(=O)N[C@H](C(=O)O)C(C)(C)C`: at Peptide deformylase, the IC50 came out at 0.08 µM. Moreover, the MIC in the assay with Staphylococcus capitis (setting [1]) and with Escherichia coli (setting [2]) was over 200 µM each time.
For the compound `CCCC[C@H](CN(O)C=O)C(=O)N[C@@H](Cc1ccc(O)cc1)C(=O)N(C)C`, the IC50 against Peptide deformylase is 0.3 µM. The MIC with Staphylococcus capitis (setting [1]) and with Escherichia coli (setting [2]) was over 200 µM in each case.
Compound `CCCC[C@H](CN(O)C=O)C(=O)N[C@@H](C)C(=O)N(C)C` registered an IC50 on Peptide deformylase of 0.04 µM. For the same compound, the MIC was determined as 100 µM (≈ 28.7 µg/mL) with Staphylococcus capitis (setting [1]) and 25 µM (≈ 7.18 µg/mL) in the assay with Escherichia coli (setting [2]).
In turn, `CCCC[C@H](CN(O)C=O)C(=O)N[C@@H](CSCc1ccccc1)C(=O)N(C)C` had an IC50 against Peptide deformylase of 0.07 µM. For the same compound, the results for the minimum inhibitory concentration (MIC) in the assay with Staphylococcus capitis (setting [1]) and with Escherichia coli (setting [2]) were 12.5 µM (≈ 5.12 µg/mL) and 200 µM (≈ 81.9 µg/mL), respectively.
As for `CCCC[C@H](CN(O)C=O)C(=O)N[C@H](C(=O)N1CCC(Cc2ccccc2)CC1)C(C)(C)C`, the IC50 on Peptide deformylase was found to be 0.02 µM. The results for the minimal inhibitory concentration (MIC) in the assay with Staphylococcus capitis (setting [1]) and in the assay with Escherichia coli (setting [2]) were 6.25 µM (≈ 2.87 µg/mL) and 200 µM (≈ 91.9 µg/mL), respectively.
For the compound `CCCC[C@H](CN(O)C=O)C(=O)NCC(=O)N(C)C`, the MIC is over 200 µM in the assay with Staphylococcus capitis (setting [1]) and 50 µM (≈ 13.7 µg/mL) in the assay on Escherichia coli (setting [2]).
The compound `CCCC[C@H](CN(O)C=O)C(=O)N[C@H](C(=O)N1CCC(C(=O)OCC)CC1)C(C)(C)C` returned an IC50 on Peptide deformylase of 0.01 µM. The MIC in the assay with Staphylococcus capitis (setting [1]) is 25 µM (≈ 11 µg/mL); with Escherichia coli (setting [2]) it was over 200 µM.
For the compound `CCCC[C@H](CN(O)C=O)C(=O)N[C@H](C(=O)N(C)C)C(C)(C)SC`, the MIC in the assay on Staphylococcus capitis (setting [1]) and in the assay with Escherichia coli (setting [2]) was 25 µM (≈ 9.04 µg/mL) each time.
As for `CCCC[C@H](CN(O)C=O)C(=O)N[C@H](C(=O)N1CCCc2ccccc21)C(C)(C)C`, half-maximal inhibition against Peptide deformylase (IC50) was put at 0.009 µM. Also, the MIC in the assay with Staphylococcus capitis (setting [1]) and in the assay on Escherichia coli (setting [2]) was 50 µM (≈ 20.9 µg/mL) in each case.
Regarding `CCCC[C@H](CN(O)C=O)C(=O)N[C@H](C(=O)N1CCCC1)C(C)(C)C`, the MIC in the assay with Staphylococcus capitis (setting [1]) and in the assay with Escherichia coli (setting [2]) was 25 µM (≈ 8.89 µg/mL) each time.
As for `CCCC[C@H](CN(O)C=O)C(=O)N1CCC[C@H]1C(=O)N(C)C`, the IC50 against Peptide deformylase stood at 0.4 µM. The MIC with Staphylococcus capitis (setting [1]) is 50 µM (≈ 15.7 µg/mL); in the assay on Escherichia coli (setting [2]), over 200 µM.
`CCCC[C@H](CN(O)C=O)C(=O)N[C@@H](CC(C)C)C(=O)N(C)C`: half-maximal inhibition against Peptide deformylase (IC50) required 0.02 µM. Further, the MIC in the assay on Staphylococcus capitis (setting [1]) and in the assay with Escherichia coli (setting [2]) was 50 µM (≈ 16.5 µg/mL) throughout.
Regarding `CCCC[C@H](CN(O)C=O)C(=O)N[C@@H](CCCCN)C(=O)N(C)C`, it took 0.2 µM to reach half-maximal inhibition against Peptide deformylase (IC50). Further, the MIC in the assay with Staphylococcus capitis (setting [1]) and in the assay on Escherichia coli (setting [2]) was over 200 µM throughout.
Turning to `CCCC[C@H](CN(O)C=O)C(=O)N[C@@H](CCC(=O)OCc1ccccc1)C(=O)N(C)C`, at Peptide deformylase, the IC50 came to 0.02 µM. For the same compound, the values for the MIC in the assay with Staphylococcus capitis (setting [1]) and with Escherichia coli (setting [2]) were 200 µM (≈ 87.1 µg/mL) and over 200 µM, respectively.
The compound `CCCC[C@H](CN(O)C=O)C(=O)N[C@H](C(C)=O)C(C)(C)C` had an IC50 against Peptide deformylase of 0.02 µM. The minimal inhibitory concentration (MIC) is 100 µM (≈ 30 µg/mL) in the assay on Staphylococcus capitis (setting [1]) and 25 µM (≈ 7.51 µg/mL) in the assay with Escherichia coli (setting [2]).
In the case of `CCCC[C@H](CN(O)C=O)C(=O)N[C@@H](CC1CCCCC1)C(=O)N(C)C`, at Peptide deformylase, half-maximal inhibition (IC50) required 0.03 µM. For the same compound, the MIC in the assay on Staphylococcus capitis (setting [1]) and in the assay on Escherichia coli (setting [2]) was 100 µM (≈ 37 µg/mL) each time.
For the compound `CCCC[C@H](CN(O)C=O)C(=O)N[C@H](C(=O)N(C)C)C(C)C`, the half-maximal inhibitory concentration (IC50) on Peptide deformylase came out at 0.02 µM. Also, the MIC in the assay on Staphylococcus capitis (setting [1]) and with Escherichia coli (setting [2]) was 25 µM (≈ 7.89 µg/mL) throughout.
`CCCC[C@H](CN(O)C=O)C(=O)N[C@H](C(=O)N1CCCC2CCCCC21)C(C)(C)C` (some centres undefined): the MIC with Staphylococcus capitis (setting [1]) was 50 µM (≈ 21.2 µg/mL); with Escherichia coli (setting [2]), over 200 µM.
The matching figures for `CCCC[C@H](CN(O)C=O)C(=O)N[C@H](C(=O)N(C)C)C(C)(C)O`: 25 µM (≈ 8.29 µg/mL) and 12.5 µM (≈ 4.14 µg/mL).
In the case of `CCCC[C@H](CN(O)C=O)C(=O)N[C@H](C(=O)OC)C(C)(C)C`, the IC50 at Peptide deformylase came out at 0.03 µM. The MIC in the assay with Staphylococcus capitis (setting [1]) was 200 µM (≈ 63.3 µg/mL); in the assay on Escherichia coli (setting [2]), 50 µM (≈ 15.8 µg/mL).
Compound `CCCC[C@H](CN(O)C=O)C(=O)N[C@H](C(=O)N1CCN(C)CC1)C(C)(C)C` registered an IC50 against Peptide deformylase of 0.05 µM. In addition, the MIC with Staphylococcus capitis (setting [1]) was found to be 50 µM (≈ 19.2 µg/mL); in the assay on Escherichia coli (setting [2]), 25 µM (≈ 9.61 µg/mL).
Turning to `CCCC[C@H](CN(O)C=O)C(=O)N[C@H](C(=O)N(C)C)C(C)CC` (some centres undefined), the IC50 on Peptide deformylase is 0.02 µM. Moreover, the values for the MIC in the assay with Staphylococcus capitis (setting [1]) and with Escherichia coli (setting [2]) were 12.5 µM (≈ 4.12 µg/mL) and 25 µM (≈ 8.24 µg/mL), respectively.
On to `CCCC[C@H](CN(O)C=O)C(=O)N[C@H](C(=O)N1CCC(C)CC1)C(C)(C)C`, for which, on Peptide deformylase, the IC50 turned out to be 0.01 µM. The MIC in the assay with Staphylococcus capitis (setting [1]) was determined as 50 µM (≈ 19.2 µg/mL); with Escherichia coli (setting [2]), 100 µM (≈ 38.4 µg/mL).
In the case of `CCCC[C@H](CN(O)C=O)C(=O)N[C@H](C(=O)N1CCOCC1)C(C)(C)C`, at Peptide deformylase, the IC50 turned out to be 0.02 µM. Moreover, the MIC with Staphylococcus capitis (setting [1]) and with Escherichia coli (setting [2]) was 25 µM (≈ 9.29 µg/mL) in each case.
Regarding `CCCC[C@H](CN(O)C=O)C(=O)N[C@@H](CCCCN(C)C)C(=O)N(C)C`, at Peptide deformylase, the 50% inhibitory concentration (IC50) turned out to be 0.3 µM. The MIC in the assay with Staphylococcus capitis (setting [1]) and in the assay with Escherichia coli (setting [2]) was over 200 µM in each case.
On to `CCCC[C@H](CN(O)C=O)C(=O)N[C@@H](CCCNC(=N)N)C(=O)N(C)C`, for which the half-maximal inhibitory concentration (IC50) on Peptide deformylase worked out at 0.02 µM. Moreover, the MIC in the assay with Staphylococcus capitis (setting [1]) is 50 µM (≈ 18.6 µg/mL); in the assay on Escherichia coli (setting [2]), over 200 µM.
For `CCCC[C@H](CN(O)C=O)C(=O)N[C@@H](Cc1ccccc1)C(=O)N(C)C`, the MIC in the assay with Staphylococcus capitis (setting [1]) was determined as 50 µM (≈ 18.2 µg/mL); in the assay with Escherichia coli (setting [2]) it was 100 µM (≈ 36.3 µg/mL).
Taken in the same sequence, the figures for `CCCC[C@H](CN(O)C=O)C(=O)N[C@H](C(=O)N(C)C)C(C)(C)OC` were 100 µM (≈ 34.5 µg/mL) and 25 µM (≈ 8.64 µg/mL).
Compound `CCCC[C@H](CN(O)C=O)C(=O)N[C@H](C(=O)N(CCc1ccccc1)Cc1ccccc1)C(C)(C)C` registered an IC50 against Peptide deformylase of 0.09 µM. Moreover, the figures for the MIC with Staphylococcus capitis (setting [1]) and in the assay on Escherichia coli (setting [2]) were 100 µM (≈ 49.6 µg/mL) and over 200 µM, respectively.
In the case of `CCCC[C@H](CN(O)C=O)C(=O)N[C@H](C(=O)N(C)C1CCCCC1)C(C)(C)C`, the MIC in the assay on Staphylococcus capitis (setting [1]) was 100 µM (≈ 39.8 µg/mL); in the assay with Escherichia coli (setting [2]) it was over 200 µM.
On Peptide deformylase, `CCCC[C@H](CN(O)C=O)C(=O)N[C@H](C(=O)N1CCC(C(C)=O)CC1)C(C)(C)C` came in with a concentration for half-maximal inhibition (IC50) of 0.01 µM. The MIC in the assay on Staphylococcus capitis (setting [1]) amounted to 25 µM (≈ 10.3 µg/mL); in the assay on Escherichia coli (setting [2]) it was 100 µM (≈ 41.2 µg/mL).
Turning to `CCCC[C@H](CN(O)C=O)C(=O)N[C@@H](Cc1ccc(Cl)cc1)C(=O)N(C)C`, the IC50 against Peptide deformylase was 0.05 µM. The MIC in the assay with Staphylococcus capitis (setting [1]) is 100 µM (≈ 39.8 µg/mL); in the assay on Escherichia coli (setting [2]) it was over 200 µM.
At Peptide deformylase, `CCCC[C@H](CN(O)C=O)C(=O)N[C@@H](CC(=O)OCc1ccccc1)C(=O)N(C)C` came in with an IC50 of 0.1 µM. Also, the MIC in the assay with Staphylococcus capitis (setting [1]) was 25 µM (≈ 10.5 µg/mL); in the assay with Escherichia coli (setting [2]), over 200 µM.
Regarding `CCCC[C@H](CN(O)C=O)C(=O)N[C@H](C(=O)N(C)C)C(C)(C)C` (stereo in doubt; form 1), at Peptide deformylase, the IC50 was 0.007 µM.
For the compound `CCCC[C@H](CN(O)C=O)C(=O)N[C@H](C(=O)N(C)C)C(C)(C)C` (stereo in doubt; form 2), the midpoint of inhibition against Peptide deformylase, the IC50, lay at 0.04 µM. In addition, the MIC in the assay on Staphylococcus capitis was over 200 µM; in the assay on Escherichia coli, 100 µM (≈ 32.9 µg/mL).
